Assay [1] deals with KC6141 mouse PDAC cells. The assay can be described thus: Cell viability assay (CCK-8). Type of assay: cell-based. The settings on record: 3 days; for cell viability vs vehicle: WT, Ikkα-KD, Nhe1-KD, Ikkα-KD;Nhe1-KD KC6141 cells. The protocol:
Extracellular Matrix (ECM) Preparation. Skin fibroblasts were seeded on 6/12/96-well plates. One day after plating, cells were switched into DMEM (with pyruvate) with 10% dialysed FBS supplemented with or without 500 μM ^3H-proline and 100 μM Vitamin C. Cells were cultured for 6 days with media renewal every 24 h. After six days, skin fibroblasts were removed by washing in 1 ml or 500 μl or 100 μl per well PBS with 0.5% (v/v) Triton X-100 and 20 mM NH4OH. ECM was washed five times with PBS before plating KC6141 cells. The following day, KC6141 cells were switched into the indicated medium for 24 or 72 hrs.
Cell viability assay. Cell viability was determined with Cell Counting Kit-8 assay (CCK-8 assay kit, Glpbio). Cells were plated in 96-well plates at a density of 3000 cells (MIA PaCa-2) or 1500 cells (KC6141) per well and incubated overnight prior to treatment. EIPA (10 μM), MRT68921 (600 nM) or erlotinib (2 μM, Sigma) were added to the wells for 72 and 96 hrs. Next, 10 μL of CCK-8 was added to each well. The optical density was read at 450 nm using a microplate reader (FilterMax F5, Molecular Devices, USA) at day 0, 1, 2, 3, and 4. For glutamine-deprivation assays, cells in 96-well plates were rinsed briefly in PBS and incubated in the 0.2 mM glutamine. Glutamine-free DMEM medium was supplemented with 0.2 mM glutamine in the presence of 10% dialysed FBS and 25 mM HEPES. For some conditions, the medium was supplemented with a final concentration of 2% BSA (Fraction V, fatty-acid-, nuclease and protease-free, Calbiochem). For all experiments, media were replaced every 24 hrs. Viable cell counts were obtained using CCK-8 assay described as above.
In some embodiments, cells were plated in 96-well plates coated with or without ECM at a density of 3000 cells (MIA PaCa-2, 1444, 1305, COLO 357/FG) or 1500 cells (KC6141) per well and incubated overnight prior to treatment. EIPA (10.5 μM), IPI549 (600 nM), MBQ-167 (500 nM), MRT68921 (600 nM) or erlotinib (2 μM, Sigma), ML385 (10 μM, Sigma), HCQ (10 μM or 80 μM) or their combinations were added to the wells for 24, 72 or 96 hrs. Next, 10 μL of CCK-8 was added to each well. The optical density was read at 450 nm using a microplate reader (FilterMax F5, Molecular Devices, USA) at day 0, 1, 2, 3, and 4. For glutamine-deprivation assays, cells in 96-well plates were rinsed briefly in PBS and incubated in the 0.2 mM glutamine. Glutamine-free DMEM medium was supplemented with 0.2 mM glutamine in the presence of 10% dialyzed FBS and 25 mM HEPES. For glucose-deprivation assays, cells in 96-well plates were rinsed briefly in PBS and incubated in the 0.5 mM glucose. Glucose-free DMEM medium was supplemented with 0.5 mM glucose in the presence of 10% dialyzed FBS and 25 mM HEPES. For some conditions, the medium was supplemented with a final concentration of 2% BSA (Fraction V, fatty-acid-, nuclease and protease-free, Calbiochem). For all experiments, media were replaced every 24 hrs. Viable cell counts were obtained using CCK-8 assay described as above.

Assay [2] concerns KC6141 cells. The assay can be described thus: NADPH/NADP measurement. Type of assay: cell-based, mouse. The settings on record: 0.5 mM glucose, 24 hrs; for NADPH to NADP ratio: KC6141 cells on ECM. The protocol:
Extracellular Matrix (ECM) Preparation. Skin fibroblasts were seeded on 6/12/96-well plates. One day after plating, cells were switched into DMEM (with pyruvate) with 10% dialysed FBS supplemented with or without 500 μM ^3H-proline and 100 μM Vitamin C. Cells were cultured for 6 days with media renewal every 24 h. After six days, skin fibroblasts were removed by washing in 1 ml or 500 μl or 100 μl per well PBS with 0.5% (v/v) Triton X-100 and 20 mM NH4OH. ECM was washed five times with PBS before plating KC6141 cells. The following day, KC6141 cells were switched into the indicated medium for 24 or 72 hrs. NADPH/NADP Measurement. NADPH and NADP measurement was performed using NADP/NADPH-Glo™ Assays (Promega #G9081) according to manufacturer's protocol. Briefly, KC6141 cells were grown on 96-well plates coated with ECM and treated as above. Then medium was removed and replaced with 50 μl of PBS and 50 μl of base solution with 1% DTAB. The plate was briefly mixed to ensure homogeneity and cell lysis. 50 μl of each sample was removed to an empty well for acid treatment. 25 μl per well of 0.4N HCl was added into these samples. All samples were incubated for 15 minutes at 60° C. and then equilibrated for 10 minutes at room temperature. 25 μl of 0.5M Trizma® base was added into each well of acid-treated cells to neutralize the acid. 50 μl of HCl/Trizma® solution was added to each well containing base-treated samples. Then 100 μl of NADP/NADPH-Glo™ Detection Reagent was added into each well and incubated for 30 minutes at room temperature. Luminescence was recorded using a luminometer.

The results in this text go back to patent publication US12458630B2, “Combination therapy for cancer” (The Regents of the University of California, priority 2020, dated 2025).

`CCN(c1nc(N)c(C(=O)N=C(N)N)nc1Cl)C(C)C` [EIPA, 5-(N-ethyl-N-isopropyl) amiloride]: in assay [1] (IKKα-deficient KC6141 cells), the “sensitivity to single agent (cell viability)” value is “very sensitive”. In assay [1] (WT and IKKα KD 6141 cells on ECM, 0.5 mM glucose, EIPA, IPI549 600 nM, MBQ-167 500 nM), the “cell viability enhanced by extracellular matrix (ECM)” value was “suppressed”. In addition, in assay [1], the “cell viability vs vehicle” value is reported as “suppression of cell viability”. Further, in assay [2], the “NADPH to NADP ratio” value is given as “reduced”. For the same molecule, the “NADPH to NADP ratio in NRF2 ablated cells” value in assay [2] (Nrf2 KD KC6141 cells on ECM) was “ineffective”.

For the molecule `CN1CCc2cc(Nc3ncc(C4CC4)c(NCCCNC(=O)C4CCC4)n3)ccc2C1` [MRT68921], the “cell growth, single agent” value in assay [1] (IKKα KD KC6141 cells, erlotinib 2 μM, MRT68921 600 nM) is on record as “limited”. The “cell viability vs vehicle” value in assay [1] was “suppression of cell viability”. Besides, the “NADPH to NADP ratio” value in assay [2] is recorded as “further elevated”.
